pEC50, pIC50: −log10 of the molar value. Like-named read-outs stand apart in the source and are kept apart here.
Experiments:
[1] = Cytotoxicity evaluation, CellTiter-Blue Cell Viability Assay; assay type: cell-based; conditions: human
Description: (§1) For cytotoxicity evaluation, Zluc cells were treated with compound as described herein, and cell viability was monitored using the CellTiter-Blue Cell Viability Assay (Promega) by adding 20 μL of the assay solution to each well. The plates were then incubated at 37° C./5% CO2 for at least 3 hours. Fluorescence was detected in plates using excitation and emission wavelengths of 531 and 595 nm, respectively, in a Victor^3 V 1420 multilabel counter (Perkin Elmer) and CC50 values were determined using Microsoft Excel and XLfit 5.2 software.

HCV genotype 1b replicon = assay: HCV replicon assay (luciferase reporter); assay type: cell-based; conditions: Zluc cells, 72 hours of incubation
Description: Huh-7-derived cell line (Zluc) that harbors an HCV genotype 1b replicon and a luciferase reporter gene was grown in Dulbecco's Modified Eagle Medium (DMEM) supplemented with 10% fetal bovine serum, 2 mM GlutaMAX, 1% MEM nonessential amino acids, 100 IU/mL penicillin, 100 μg/mL streptomycin, and 0.5 mg/mL Geneticin® (G418). For dose response testing the cells were seeded in 96-well plates at 7.5×10^3 cells per well in a volume of 50 μL, and incubated at 37° C./5% CO2. Drug solutions were made up freshly in Huh-7 media as 2× stocks. Ten additional 5-fold dilutions were prepared from these stocks in DMEM without G418. At least three hours after Zluc cells were seeded, drug treatment was initiated by adding 50 μL of drug dilutions to the plates in duplicate. Final concentrations of drug ranged from 100 μM to 0.0000512 μM. Cells were then incubated at 37° C./5% CO2. […] After 72 hours of incubation, the inhibition of HCV replication was measured by quantification of photons emitted after mono-oxygenation of 5′-fluoroluciferin to oxyfluoroluciferin by firefly luciferase. For this, media was removed from the plates via gentle tapping. Fifty microliters of ONE-glo luciferase assay reagent was added to each well. The plates were shaken gently for 3 min at room temperature and luminescence was measured on a Victor^3 V 1420 multilabel counter (Perkin Elmer) with a 1 second read time using a 700 nm cut-off filter. The EC50 values were calculated from dose response curves from the resulting best-fit equations determined by Microsoft Excel and XLfit 5.2 software.
Compounds presented in Table 1 below were assayed according to the replicon assay described herein.

[2] = system: Zluc cells (Huh-7-derived cell line); assay: Cytotoxicity evaluation, CellTiter-Blue Cell Viability Assay; assay type: cell-based; conditions: read-out: HCV Replicon CC50
Description: as §1

[3] = target: T1, wild-type HCV genotype 1b NS5B protein (HCV polymerase) (Hepatitis C virus genotype 1b, UniProt Q9WMX2); assay: HCV polymerase enzyme assay, wild-type; assay type: biochemical
T1 construct: HCV genotype 1b NS5B protein were used to generate recombinant HCV polymerases (with a deletion of the 21 carboxy terminal amino acids); made in house
Description: (§2) Test compounds in the form of nucleoside triphosphates were examined for inhibitory activity against purified HCV polymerase in a standard assay. Bacterial expression constructs encoding the approximately 65 kDa HCV genotype 1b NS5B protein were used to generate recombinant HCV polymerases (with a deletion of the 21 carboxy terminal amino acids). Both the wild-type genotype 1b protein and protein containing the S282T mutation were expressed and purified for use in the enzymatic activity assay.
(§3) The enzymatic activity assay measured the inhibitory effect of increasing concentrations of test compound on the incorporation of α-[^33P]-labeled nucleotide into trichloroacetic acid-precipitable material. Recombinant polymerase and synthetic RNA template were combined in reaction buffer containing ribonucleoside triphosphates, α-[^33P]-labeled nucleotide and eight concentrations of test compound in three-fold dilutions. Reactions were incubated for two hours at 30° C.
(§4) Reactions were terminated by the addition of ice-cold trichloroacetic acid and sodium pyrophosphate to promote precipitation of newly-synthesized ribonucleic acid. Precipitable material from the reactions was collected by filtration onto 96-well filter plates, washed extensively with water, and quantified by liquid scintillation.
(§5) The inhibitory activity of test compounds was determined by fitting results to dose-response curves using XLfit software.

[4] = Pharmacokinetics of liver triphosphate following a single oral dose in CD-1 mice; assay type: in vivo; conditions: CD-1 male mice, single oral dose 10 mg/kg in PEG 200, liver triphosphate at 4, 12 and 24 hours, AUC given at 1 μmol/kg
Description: A single oral dose of test compound at 10 mg/kg in PEG 200 (dose volume 5 mL/kg) was administered to nine CD-1 male mice. Five untreated animals were used for the collection of control plasma and liver. Terminal plasma and liver samples were collected from three animals per time point at 4, 12 and 24 hours post dose. Liver specimens were collected from all animals immediately after the incision. Freezing forceps stored in liquid nitrogen were used to freeze the liver before excision.
Liver samples were analyzed for the active species nucleoside triphosphate by LC-MS/MS. The triphosphate levels were assayed by homogenizing (on ice) a known weight of mouse liver with 4× volume of 0.95 M trichloroacetic acid (TCA). Internal standard solution was added to the homogenate followed by neutralization with 20% ammonium hydroxide solution and addition of 500 μL 1% formic acid. The tissue samples were extracted by weak anion exchange solid phase extraction (SPE). Post extraction, the eluates were evaporated under nitrogen, followed by reconstitution before injection onto the LC-MS/MS system. […] The analyte was detected and quantified by tandem mass spectrometry in positive ion mode on an API4000 equipped with a Turbo Ionspray® interface.

[5] = target: T2, HCV genotype 1b NS5B protein containing the S282T mutation (Hepatitis C virus genotype 1b, UniProt Q9WMX2, S2701T); assay: HCV polymerase enzyme assay, S282T mutant; assay type: biochemical
T2 construct: HCV genotype 1b NS5B protein were used to generate recombinant HCV polymerases (with a deletion of the 21 carboxy terminal amino acids); made in house
Description: as §2, §3, §4, §5

[6] = Zluc cells, read-out: HCV Replicon CC50
[7] = Zluc cells (Huh-7-derived HCV replicon cell line)

CC(C)OC(=O)[C@@H](C)NP(=O)(OC[C@H]1C[C@@H](n2ccc(N)nc2=O)C(Cl)(Cl)[C@@H]1O)Oc1ccccc1 (mixture of isomers) [103a (Diast. Mix)]
CC50 [1, 6]: > 50 µM | pEC50 (HCV genotype 1b replicon; Hepatitis C virus, 72 h): 5.00 to 6.00

CC(C)OC(=O)[C@H](C)N[P@](=O)(OCCSC(=O)C(C)(C)C)OC[C@H]1O[C@@H](n2ccc(N)nc2=O)[C@@](F)(Cl)[C@@H]1O (single isomer, unassigned) [102b (Diast. 2)]
CC50 [2]: > 50 µM | pEC50 (HCV genotype 1b replicon): < 5.00

CC(C)OC(=O)[C@@H](C)NP(=O)(OC[C@H]1C[C@@H](n2ccc(N)nc2=O)C(Cl)(Cl)[C@@H]1O)Oc1ccccc1 (single isomer, unassigned) [103a (Diast. 2)]
pEC50 (HCV genotype 1b replicon): < 5.00

CC(C)OC(=O)[C@H](C)NP(=O)(OCCSC(=O)C(C)(C)C)OC[C@H]1O[C@@H](n2cnc3c(N)ncnc32)C(Cl)(Cl)[C@@H]1O (single isomer, unassigned) [117b (Diast. 2)]
CC50 [2]: ≤ 50 µM | pEC50 (HCV genotype 1b replicon): 6.00 to 6.60

CC(C)OC(=O)[C@H](C)N[P@](=O)(OCCSC(=O)C(C)(C)C)OC[C@H]1O[C@@H](n2ccc(N)nc2=O)C(Cl)(Cl)[C@@H]1O (single isomer, unassigned) [101b (Diast. 2)]
CC50 [2]: > 50 µM | pEC50 (HCV genotype 1b replicon): 5.00 to 6.00

Nc1ncnc2c1ncn2[C@@H]1O[C@H](COP(=O)(O)OP(=O)(O)OP(=O)(O)O)[C@@H](O)C1(Cl)Cl [Compound 2011]
pIC50 [3]: 6.00 to 6.60

CC(C)OP1(=O)OC[C@H]2O[C@@H](n3ccc(N)nc3=O)C(Cl)(Cl)[C@@H]2O1 (single isomer, unassigned) [104 (Diast. 1)]
CC50 [1, 7]: > 50 µM | pEC50 (HCV genotype 1b replicon): 5.00 to 6.00 | Ms Liver TP AUC ([4]; listed as 104 Diast. 1, 10 mg/kg): ++++ (2000 < ++++)

Nc1ccn([C@@H]2O[C@H](CO)[C@@H](O)C2(Cl)Cl)c(=O)n1 [Compound 1001]
CC50 [1, 7]: > 50 µM | pEC50 (HCV genotype 1b replicon; Hepatitis C virus, 72 h): < 5.00

CC(C)OC(=O)[C@H](C)NP(=O)(OCCSC(=O)C(C)(C)C)OC[C@H]1O[C@@H](n2cnc3c(N)ncnc32)C(Cl)(Cl)[C@@H]1O (single isomer, unassigned) [117b (Diast. 1)]
CC50 [1, 7]: ≤ 50 µM | pEC50 (HCV genotype 1b replicon; Hepatitis C virus, 72 h): 6.00 to 6.60

O=c1ccn([C@@H]2O[C@H](COP(=O)(O)OP(=O)(O)OP(=O)(O)O)[C@@H](O)C2(Cl)Cl)c(=O)[nH]1 [Compound 2002]
pIC50 [3]: > 6.60 | pIC50 [5]: 5.00 to 6.00

O=c1ccn([C@@H]2O[C@H](CO)[C@@H](O)[C@]2(F)Cl)c(=O)[nH]1 [Compound 1006]
CC50 [1, 7]: > 50 µM | pEC50 (HCV genotype 1b replicon; Hepatitis C virus, 72 h): < 5.00

CC(C)OC(=O)[C@H](C)N[P@](=O)(OCCSC(=O)C(C)(C)C)OC[C@H]1O[C@@H](n2ccc(N)nc2=O)[C@@](F)(Cl)[C@@H]1O (mixture of isomers) [102b (Diast. Mix)]
CC50 [1, 7]: > 50 µM | pEC50 (HCV genotype 1b replicon; Hepatitis C virus, 72 h): < 5.00

Nc1nc2c(ncn2[C@@H]2O[C@H](CO)[C@@H](O)[C@]2(F)Cl)c(=O)[nH]1 [Compound 1005]
CC50 [1, 7]: > 50 µM | pEC50 (HCV genotype 1b replicon; Hepatitis C virus, 72 h): < 5.00

Nc1ncnc2c1ncn2[C@@H]1O[C@H](CO)[C@@H](O)C1(Cl)Cl [Compound 1011]
CC50 [1, 7]: > 50 µM | pEC50 (HCV genotype 1b replicon; Hepatitis C virus, 72 h): < 5.00

CC(C)OC(=O)[C@@H](C)NP(=O)(OC[C@H]1O[C@@H](n2cnc3c(=O)[nH]c(N)nc32)[C@@](F)(Cl)[C@@H]1O)Oc1ccccc1 (mixture of isomers) [147a (Diast. Mix)]
CC50 [1, 6]: > 50 µM | pEC50 (HCV genotype 1b replicon; Hepatitis C virus, 72 h): < 5.00

O=c1ccn([C@@H]2O[C@H](COP(=O)(O)OP(=O)(O)OP(=O)(O)O)[C@@H](O)[C@@]2(F)Cl)c(=O)[nH]1 [Compound 2005]
pIC50 [3]: > 6.60 | pIC50 [5]: 5.00 to 6.00

O=c1ccn([C@@H]2O[C@H](COP(=O)(O)OP(=O)(O)OP(=O)(O)O)[C@@H](O)[C@]2(F)Cl)c(=O)[nH]1 [Compound 2004]
pIC50 [3]: > 6.60 | pIC50 [5]: 5.00 to 6.00

CC(C)OC(=O)[C@H](C)N[P@](=O)(OCCSC(=O)C(C)(C)C)OC[C@H]1O[C@@H](n2ccc(N)nc2=O)[C@@](F)(Cl)[C@@H]1O (single isomer, unassigned) [102b (Diast. 1)]
CC50 [1, 7]: > 50 µM | pEC50 (HCV genotype 1b replicon; Hepatitis C virus, 72 h): < 5.00

O=c1ccn([C@@H]2O[C@H](CO)[C@@H](O)C2(Cl)Cl)c(=O)[nH]1 [Compound 1002]
CC50 [1, 7]: > 50 µM | pEC50 (HCV genotype 1b replicon; Hepatitis C virus, 72 h): < 5.00

O=c1ccn([C@@H]2O[C@H](CO)[C@@H](O)[C@@]2(F)Cl)c(=O)[nH]1 [Compound 1007]
CC50 [1, 7]: > 50 µM | pEC50 (HCV genotype 1b replicon; Hepatitis C virus, 72 h): < 5.00

CC(C)OC(=O)[C@H](C)N[P@](=O)(OCCSC(=O)C(C)(C)C)OC[C@H]1O[C@@H](n2ccc(N)nc2=O)C(Cl)(Cl)[C@@H]1O (single isomer, unassigned) [101b (Diast. 1)]
CC50 [1, 7]: > 50 µM | pEC50 (HCV genotype 1b replicon; Hepatitis C virus, 72 h): 5.00 to 6.00

Nc1nc2c(ncn2[C@@H]2O[C@H](COP(=O)(O)OP(=O)(O)OP(=O)(O)O)[C@@H](O)[C@]2(F)Cl)c(=O)[nH]1 [Compound 2003]
pIC50 [3]: > 6.60 | pIC50 [5]: > 6.60

CC(C)OC(=O)[C@@H](C)NP(=O)(OC[C@H]1C[C@@H](n2ccc(N)nc2=O)C(Cl)(Cl)[C@@H]1O)Oc1ccccc1 (single isomer, unassigned) [103a (Diast. 1)]
CC50 [1, 6]: > 50 µM | pEC50 (HCV genotype 1b replicon; Hepatitis C virus, 72 h): < 5.00

Nc1ccn([C@@H]2O[C@H](CO)[C@@H](O)[C@]2(F)Cl)c(=O)n1 [Compound 1004]
CC50 [1, 7]: > 50 µM | pEC50 (HCV genotype 1b replicon; Hepatitis C virus, 72 h): 5.00 to 6.00

CC(C)OP1(=O)OC[C@H]2O[C@@H](n3ccc(N)nc3=O)C(Cl)(Cl)[C@@H]2O1 (single isomer, unassigned) [104 (Diast. 2)]
CC50 [2]: > 50 µM | pEC50 (HCV genotype 1b replicon): < 5.00 | Ms Liver TP AUC ([4]; listed as 104 Diast. 2, 10 mg/kg): +++ (+++ ≦ 2000)

Nc1ccn([C@@H]2O[C@H](COP(=O)(O)OP(=O)(O)OP(=O)(O)O)[C@@H](O)C2(Cl)Cl)c(=O)n1 [Compound 2001]
pIC50 [3]: > 6.60 | pIC50 [5]: 6.00 to 6.60

Source: patent publication US20170198005A1, “2'-DICHLORO AND 2'-FLUORO-2'-CHLORO NUCLEOSIDE ANALOGUES FOR HCV INFECTION” (IDENIX PHARMACEUTICALS LLC, priority 2013, published 2017)
